In ChEMBL document CHEMBL6177961, “Structure-Based Analysis of Semisynthetic Anti-TB Rufomycin Analogues” (J Nat Prod, 2025):
Converted amounts (≈) assume the structure as drawn.

Assays:
[1] = tested on: Mycobacterium tuberculosis; experiment: Antimycobacterial activity against Mycobacterium tuberculosis H37Rv ATCC 27294 assessed as reduction in bacterial growth by microplate alamar blue assay; format: functional
Mycobacterium avium = experiment: Antimycobacterial activity against Mycobacterium avium assessed as reduction in bacterial growth; format: functional
[2] = tested on: Mycobacteroides abscessus; experiment: Antimycobacterial activity against Mycobacterium abscessus ATCC 19977 assessed as reduction in bacterial growth by microplate Alamar blue assay; format: functional
[3] = Cytotoxicity against African green monkey Vero cells; format: toxicity, cell-based; settings: African green monkey (Chlorocebus sabaeus)
[4] = Selectivity index, ratio of IC50 for cytotoxicity against African green monkey Vero cells to MIC for antimycobacterial activity against Mycobacterium tuberculosis H37Rv ATCC 27294; format: toxicity, cell-based; settings: read-out: Selectivity Index
[5] = Binding affinity to N-terminal Mycobacterium tuberculosis ClpC1 assessed as dissociation constant by SPR analysis
[6] = Binding affinity to full length Mycobacterium tuberculosis ClpC1 assessed as dissociation constant by SPR analysis

SMILES	MIC [1] [µM]	MIC (Mycobacterium avium) [µM]	MIC [2] [µM]	IC50 [3] [nM]	selectivity ratio [4]	Kd [5] [nM]	Kd [6] [nM]
C/C=C/C[C@@H]1NC(=O)[C@H](CC(C)C)N2C=C(C)C[C@@H](C2=O)N(C)C(=O)[C@H](C)NC(=O)[C@H](Cc2ccc(OC)c([N+](=O)[O-])c2)NC(=O)[C@H](CC(C)C)N(C)C(=O)[C@H](Cc2cn(C(C)(C)[C@H]3CO3)c3ccccc23)NC1=O	0.073 (≈ 0.0758 µg/mL)	> 10	2.3 (≈ 2.39 µg/mL)	98000	1300	–	–
C/C=C/C[C@@H]1NC(=O)[C@H](CC(C)C)N2C=C(C)C[C@@H](C2=O)N(C)C(=O)[C@H](C)NC(=O)[C@H](Cc2ccc(O)c([N+](=O)[O-])c2)NC(=O)[C@H](CC(C)C)N(C)C(=O)[C@H](Cc2cn(C(C)(C)[C@H]3CO3)c3ccccc23)NC1=O	0.003 (≈ 0.00307 µg/mL)	4.1 (≈ 4.2 µg/mL)	0.58 (≈ 0.594 µg/mL)	> 100000	> 33000	50	60
C/C=C/C[C@@H]1NC(=O)[C@H](CC(C)C)N2C=C(C)C[C@@H](C2=O)N(C)C(=O)[C@H](C)NC(=O)[C@H](Cc2ccc(O)c(N)c2)NC(=O)[C@H](CC(C)C)N(C)C(=O)[C@H](Cc2cn(C(C)(C)[C@H](O)CCl)c3ccccc23)NC1=O	0.89 (≈ 0.917 µg/mL)	> 10	8.3 (≈ 8.55 µg/mL)	> 100000	> 110	–	–
C/C=C/C[C@@H]1NC(=O)[C@H](CC(C)C)N2C(=O)[C@H](CC(C)[C@H]2OC)N(C)C(=O)[C@H](C)NC(=O)[C@H](Cc2ccc(O)c([N+](=O)[O-])c2)NC(=O)[C@H](CC(C)C)N(C)C(=O)[C@H](Cc2cn(C(C)(C)[C@H](O)COC)c3ccccc23)NC1=O (some centres not stated)	0.008 (≈ 0.00871 µg/mL)	0.4 (≈ 0.435 µg/mL)	0.11 (≈ 0.12 µg/mL)	> 100000	> 13000	75	72
C/C=C/C[C@@H]1NC(=O)[C@H](CC(C)C)N2C(=O)[C@H](C[C@@H](C)[C@H]2OCCCC)N(C)C(=O)[C@H](C)NC(=O)[C@H](Cc2ccc(O)c([N+](=O)[O-])c2)NC(=O)[C@H](CC(C)C)N(C)C(=O)[C@H](Cc2cn(C(C)(C)[C@H](O)CCl)c3ccccc23)NC1=O	4.3 (≈ 4.88 µg/mL)	–	> 10	> 100000	–	210	170
C/C=C/C[C@@H]1NC(=O)[C@H](CC(C)C)N2C(=O)[C@H](CC(C)[C@H]2OC)N(C)C(=O)[C@H](C)NC(=O)[C@H](Cc2ccc(OC)c([N+](=O)[O-])c2)NC(=O)[C@H](CC(C)C)N(C)C(=O)[C@H](Cc2cn(C(C)(C)[C@H]3CO3)c3ccccc23)N(C)C1=O (some centres not stated)	0.065 (≈ 0.0705 µg/mL)	9 (≈ 9.76 µg/mL)	2.1 (≈ 2.28 µg/mL)	90000	1400	–	–
C/C=C/C[C@@H]1NC(=O)[C@H](CC(C)C)N2C(=O)[C@H](C[C@@H](C)[C@H]2OCC)N(C)C(=O)[C@H](C)NC(=O)[C@H](Cc2ccc(O)c([N+](=O)[O-])c2)NC(=O)[C@H](CC(C)C)N(C)C(=O)[C@H](Cc2cn(C(C)(C)[C@H](O)CCl)c3ccccc23)NC1=O	0.24 (≈ 0.266 µg/mL)	> 10	1.1 (≈ 1.22 µg/mL)	> 10000	> 42	120	140
C/C=C/C[C@@H]1NC(=O)[C@H](CC(C)C)N2C(=O)[C@H](CC(C)[C@H]2OC)N(C)C(=O)[C@H](C)NC(=O)[C@H](Cc2ccc(O)c([N+](=O)[O-])c2)NC(=O)[C@H](CC(C)C)N(C)C(=O)[C@H](Cc2cn(C(C)(C)[C@H]3CO3)c3ccccc23)NC1=O (some centres not stated)	0.002 (≈ 0.00211 µg/mL)	1.4 (≈ 1.48 µg/mL)	0.15 (≈ 0.158 µg/mL)	> 100000	> 53000	–	–
C/C=C/C[C@@H]1NC(=O)[C@H](CC(C)C)N2C=C(C)C[C@@H](C2=O)N(C)C(=O)[C@H](C)NC(=O)[C@H](Cc2ccc(O)c([N+](=O)[O-])c2)NC(=O)[C@H](CC(C)C)N(C)C(=O)[C@H](Cc2cn(C(C)(C)[C@H](O)CBr)c3ccccc23)NC1=O	0.003 (≈ 0.00332 µg/mL)	1.1 (≈ 1.22 µg/mL)	0.57 (≈ 0.63 µg/mL)	> 100000	> 32000	260	350
C/C=C/C[C@@H]1NC(=O)[C@H](CC(C)C)N2C(=O)[C@H](C[C@H](C)[C@@H]2OCCCC)N(C)C(=O)[C@H](C)NC(=O)[C@H](Cc2ccc(O)c([N+](=O)[O-])c2)NC(=O)[C@H](CC(C)C)N(C)C(=O)[C@H](Cc2cn(C(C)(C)[C@H](O)CCl)c3ccccc23)NC1=O	0.048 (≈ 0.0545 µg/mL)	–	4.2 (≈ 4.77 µg/mL)	> 100000	> 2100	27	29
C/C=C/C[C@@H]1NC(=O)[C@H](CC(C)C)N2C=C(C)C[C@@H](C2=O)N(C)C(=O)[C@H](C)NC(=O)[C@H](Cc2ccc3c(c2)N=C(C)CC(C)(C)O3)NC(=O)[C@H](CC(C)C)N(C)C(=O)[C@H](Cc2cn(C(C)(C)[C@H](O)CCl)c3ccccc23)NC1=O	0.79 (≈ 0.878 µg/mL)	> 10	4.5 (≈ 5 µg/mL)	> 100000	> 130	–	–
C/C=C/C[C@@H]1NC(=O)[C@H](CC(C)C)N2C(=O)[C@H](C[C@@H](C)[C@@H]2OCCCC)N(C)C(=O)[C@H](C)NC(=O)[C@H](Cc2ccc(O)c([N+](=O)[O-])c2)NC(=O)[C@H](CC(C)C)N(C)C(=O)[C@H](Cc2cn(C(C)(C)[C@H](O)CCl)c3ccccc23)NC1=O	0.77 (≈ 0.874 µg/mL)	> 10	9.4 (≈ 10.7 µg/mL)	95000	120	600	720
C/C=C/C[C@@H]1NC(=O)[C@H](CC(C)C)N2C(=O)[C@H](CC(C)[C@H]2OC(C)=O)N(C)C(=O)[C@H](C)NC(=O)[C@H](Cc2ccc(OC(C)=O)c([N+](=O)[O-])c2)NC(=O)[C@H](CC(C)C)N(C)C(=O)[C@H](Cc2cn(C(C)(C)[C@H]3CO3)c3ccccc23)NC1=O (some centres not stated)	0.004 (≈ 0.00451 µg/mL)	0.96 (≈ 1.08 µg/mL)	0.27 (≈ 0.304 µg/mL)	> 100000	> 23000	–	16
C/C=C/C[C@@H]1NC(=O)[C@H](CC(C)C)N2C(=O)[C@H](CC(C)[C@H]2OCCC)N(C)C(=O)[C@H](C)NC(=O)[C@H](Cc2ccc(O)c([N+](=O)[O-])c2)NC(=O)[C@H](CC(C)C)N(C)C(=O)[C@H](Cc2cn(C(C)(C)[C@H](O)CCl)c3ccccc23)NC1=O (some centres not stated)	0.75 (≈ 0.841 µg/mL)	> 10	2.1 (≈ 2.35 µg/mL)	> 10000	> 13	–	–
C/C=C/C[C@@H]1NC(=O)[C@H](CC(C)C)N2C(=O)[C@H](CC(C)[C@H]2OC)N(C)C(=O)[C@H](C)NC(=O)[C@H](Cc2ccc(OC)c([N+](=O)[O-])c2)NC(=O)[C@H](CC(C)C)N(C)C(=O)[C@H](Cc2cn(C(C)(C)[C@H]3CO3)c3ccccc23)NC1=O (some centres not stated)	0.006 (≈ 0.00642 µg/mL)	1.2 (≈ 1.28 µg/mL)	0.53 (≈ 0.567 µg/mL)	100000	17000	–	64
C/C=C/C[C@@H]1NC(=O)[C@H](CC(C)C)N2C=C(C)C[C@@H](C2=O)N(C)C(=O)[C@H](C)NC(=O)[C@H](Cc2ccc(OC(C)=O)c([N+](=O)[O-])c2)NC(=O)[C@H](CC(C)C)N(C)C(=O)[C@H](Cc2cn(C(C)(C)[C@H](O)CCl)c3ccccc23)NC1=O	0.022 (≈ 0.0243 µg/mL)	5.8 (≈ 6.4 µg/mL)	1.1 (≈ 1.21 µg/mL)	> 100000	> 4500	–	–
C/C=C/C[C@@H]1NC(=O)[C@H](CC(C)C)N2C=C(C)C[C@@H](C2=O)N(C)C(=O)[C@H](C)NC(=O)[C@H](Cc2ccc(OC(=O)c3ccccc3)c([N+](=O)[O-])c2)NC(=O)[C@H](CC(C)C)N(C)C(=O)[C@H](Cc2cn(C(C)(C)[C@H](O)CCl)c3ccccc23)NC1=O	0.052 (≈ 0.0606 µg/mL)	> 10	2 (≈ 2.33 µg/mL)	> 100000	> 1900	–	–
C/C=C/C[C@@H]1NC(=O)[C@H](CC(C)C)N2C(=O)[C@H](C[C@H](C)[C@H]2OCC)N(C)C(=O)[C@H](C)NC(=O)[C@H](Cc2ccc(O)c([N+](=O)[O-])c2)NC(=O)[C@H](CC(C)C)N(C)C(=O)[C@H](Cc2cn(C(C)(C)[C@H](O)CCl)c3ccccc23)NC1=O	0.005 (≈ 0.00553 µg/mL)	2.2 (≈ 2.43 µg/mL)	0.49 (≈ 0.542 µg/mL)	> 100000	> 19000	11	87
C/C=C/C[C@@H]1NC(=O)[C@H](CC(C)C)N2C=C(C)C[C@@H](C2=O)N(C)C(=O)[C@H](C)NC(=O)[C@H](Cc2ccc(O)c([N+](=O)[O-])c2)NC(=O)[C@H](CC(C)C)N(C)C(=O)[C@H](Cc2cn(C(C)(C)[C@H](O)CCl)c3ccccc23)NC1=O	0.019 (≈ 0.0202 µg/mL)	4.8 (≈ 5.09 µg/mL)	1.1 (≈ 1.17 µg/mL)	> 100000	–	–	–
C/C=C/C[C@@H]1NC(=O)[C@H](CC(C)C)N2C(=O)[C@H](CC(C)[C@H]2OC)N(C)C(=O)[C@H](C)NC(=O)[C@H](Cc2ccc(O)c([N+](=O)[O-])c2)NC(=O)[C@H](CC(C)C)N(C)C(=O)[C@H](Cc2cn(C(C)(C)[C@H](O)CCl)c3ccccc23)NC1=O (some centres not stated)	0.005 (≈ 0.00546 µg/mL)	0.4 (≈ 0.437 µg/mL)	0.25 (≈ 0.273 µg/mL)	> 100000	> 20000	66	96
C/C=C/C[C@@H]1NC(=O)[C@H](CC(C)C)N2C(=O)[C@H](CC(C)[C@H]2O)N(C)C(=O)[C@H](C)NC(=O)[C@H](Cc2ccc(O)c([N+](=O)[O-])c2)NC(=O)[C@H](CC(C)C)N(C)C(=O)[C@H](Cc2cn(C(C)(C)[C@H]3CO3)c3ccccc23)NC1=O (mixture of isomers)	0.019	1.2	0.29	–	–	83	110
C/C=C/C[C@@H]1NC(=O)[C@H](CC(C)C)N2C(=O)[C@H](CC(C)[C@H]2O)N(C)C(=O)[C@H](C)NC(=O)[C@H](Cc2ccc(OC(C)=O)c([N+](=O)[O-])c2)NC(=O)[C@H](CC(C)C)N(C)C(=O)[C@H](Cc2cn(C(C)(C)[C@H]3CO3)c3ccccc23)NC1=O (mixture of isomers)	–	–	–	–	11000	–	–
NNC(=O)c1ccncc1 [ISONIAZID]	0.46 (≈ 0.0631 µg/mL)	–	> 8	–	–	–	–
CO[C@H]1/C=C/O[C@@]2(C)Oc3c(C)c(O)c4c(O)c(c(/C=N/N5CCN(C)CC5)c(O)c4c3C2=O)NC(=O)/C(C)=C\C=C\[C@H](C)[C@H](O)[C@@H](C)[C@@H](O)[C@@H](C)[C@H](OC(C)=O)[C@@H]1C [RIFAMPIN]	0.03 (≈ 0.0247 µg/mL)	–	> 4	> 122000	–	–	–
